Read-outs that look alike come from different tables or passages of the source.
How the values were obtained:
Assay type in all cases: in vivo
Blattella germanica = experiment: Test Example 3: filter paper/sucrose bait test against German cockroach imagoes; conditions: for pest or weed control at 500 ppm: Blattella germanica, 144 h, read-out: rate of dead pests
Protocol: (§1) On the bottom of a polyethylene cup having a diameter of 5.5 cm, a filter paper having the same diameter was laid, and 0.7 ml of the above test solution was added dropwise on the filter paper, followed by putting 30 mg of sucrose on it uniformly as a bait. Two male Blattella germanica imagoes were set free in the polyethylene cup and covered it with a lid. After 6 days, the number of surviving and dead Blattella germanica was examined and the rate of dead pests was calculated.

Culex pipiens pallens = experiment: Test Example 4: mosquito larvae test in treated water; conditions: 24 h, read-out: rate of dead pests
Protocol: 0.7 ml of above test solution was added to 100 ml of ion exchanged water (active ingredient concentration: 3.5 ppm). Twenty last-instar larvae of Culex pipiens pallens were set free in the solution. After one day, the number of surviving and dead Culex pipiens pallens was examined and the rate of dead pests was calculated.

Musca domestica = experiment: Test Example 2: filter paper/sucrose bait test against housefly imagoes; conditions: read-out: rate of dead pests
Protocol: as §1, with “Ten female Musca domestica” for “Two male Blattella germanica”, “24 hours,” for “6 days,”, “Musca domestica” for “Blattella germanica”

[1] = 500 ppm test solution, 0.7 ml on filter paper with 30 mg sucrose, two male imagoes, after 6 days
[2] = active ingredient concentration 3.5 ppm in water, twenty last-instar larvae, after one day
[3] = 500 ppm test solution, 0.7 ml on filter paper with 30 mg sucrose, ten female imagoes, after 24 hours

Structure (SMILES)	pest or weed control at 500 ppm (Blattella germanica; [1]) [%]	pest or weed control at 3.5 ppm (Culex pipiens pallens; [2]) [%]	pest or weed control at 500 ppm (Musca domestica; [3]) [%]	also measured
N#CC(CCC(F)(F)F)S(=O)(=O)CCC(F)(F)F (stereo not drawn) [(1)]	100	≥ 90	≥ 70	
N#CC(CC(F)(F)C(F)(F)F)S(=O)(=O)CCC(F)(F)F (stereo not drawn) [(2)]	100	≥ 90	≥ 70	
N#CC(CCC(F)(F)C(F)(F)F)S(=O)(=O)CCC(F)(F)F (stereo not drawn) [(3)]	100	≥ 90	≥ 70	
N#CC(CC(F)(F)C(F)(F)C(F)(F)F)S(=O)(=O)CCC(F)(F)F (stereo not drawn) [(4)]				pest or weed control at 500 ppm (Blattella germanica): 100%; pest or weed control at 3.5 ppm (Culex pipiens pallens): ≥ 90%; pest or weed control at 500 ppm (Musca domestica; 24 h): ≥ 70%
N#CC(CCC(F)(F)C(F)(F)C(F)(F)F)S(=O)(=O)CCC(F)(F)F (stereo not drawn) [(5)]				pest or weed control at 500 ppm (Blattella germanica): 100%; pest or weed control at 3.5 ppm (Culex pipiens pallens): ≥ 90%; pest or weed control at 500 ppm (Musca domestica; 24 h): ≥ 70%
N#CC(CCC(F)(F)C(F)(F)C(F)(F)C(F)(F)F)S(=O)(=O)CCC(F)(F)F (stereo not drawn) [(7)]				pest or weed control at 500 ppm (Blattella germanica): 100%; pest or weed control at 3.5 ppm (Culex pipiens pallens): ≥ 90%
N#CC(CCC(F)(F)C(F)(F)F)S(=O)(=O)CCC(F)(F)C(F)(F)F (stereo not drawn) [(8)]	100	≥ 90	≥ 70	
N#CC(CC(F)(F)C(F)(F)C(F)(F)F)S(=O)(=O)CCC(F)(F)C(F)(F)F (stereo not drawn) [(9)]				pest or weed control at 500 ppm (Blattella germanica): 100%; pest or weed control at 3.5 ppm (Culex pipiens pallens): ≥ 90%; pest or weed control at 500 ppm (Musca domestica; 24 h): ≥ 70%
N#CC(CCC(F)(F)C(F)(F)F)S(=O)(=O)CCC(F)(F)C(F)(F)C(F)(F)F (stereo not drawn) [(10)]				pest or weed control at 500 ppm (Blattella germanica): 100%; pest or weed control at 3.5 ppm (Culex pipiens pallens): ≥ 90%; pest or weed control at 500 ppm (Musca domestica; 24 h): ≥ 70%
CC(C#N)(CCC(F)(F)C(F)(F)F)S(=O)(=O)CCC(F)(F)F (stereo not drawn) [(11)]	100	≥ 90	≥ 70	
CC(C#N)(CC(F)(F)C(F)(F)C(F)(F)F)S(=O)(=O)CCC(F)(F)F (stereo not drawn) [(12)]				pest or weed control at 500 ppm (Blattella germanica): 100%; pest or weed control at 3.5 ppm (Culex pipiens pallens): ≥ 90%; pest or weed control at 500 ppm (Musca domestica; 24 h): ≥ 70%
CC(C#N)(CCC(F)(F)C(F)(F)F)S(=O)(=O)CCC(F)(F)C(F)(F)F (stereo not drawn) [(13)]	100	≥ 90	≥ 70	
CC(C#N)(CCC(F)(F)C(F)(F)F)S(=O)(=O)CCC(F)(F)C(F)(F)C(F)(F)F (stereo not drawn) [(14)]				pest or weed control at 500 ppm (Blattella germanica): 100%; pest or weed control at 3.5 ppm (Culex pipiens pallens): ≥ 90%; pest or weed control at 500 ppm (Musca domestica; 24 h): ≥ 70%
CCC(C#N)(CCC(F)(F)C(F)(F)F)S(=O)(=O)CCC(F)(F)F (stereo not drawn) [(15)]	100	≥ 90	≥ 70	
CCCC(C#N)(CCC(F)(F)C(F)(F)F)S(=O)(=O)CCC(F)(F)F (stereo not drawn) [(16)]	100	≥ 90	≥ 70	
CC(C)C(C#N)(CCC(F)(F)C(F)(F)F)S(=O)(=O)CCC(F)(F)F (stereo not drawn) [(17)]	100	≥ 90	≥ 70	
CCCCC(C#N)(CCC(F)(F)C(F)(F)F)S(=O)(=O)CCC(F)(F)F (stereo not drawn) [(18)]		≥ 90	≥ 70	
CCCCCC(C#N)(CCC(F)(F)C(F)(F)F)S(=O)(=O)CCC(F)(F)F (stereo not drawn) [(19)]		≥ 90	≥ 70	
N#CC(F)(CCC(F)(F)C(F)(F)F)S(=O)(=O)CCC(F)(F)F (stereo not drawn) [(20)]	100	≥ 90	≥ 70	
N#CC(Cl)(CCC(F)(F)C(F)(F)F)S(=O)(=O)CCC(F)(F)F (stereo not drawn) [(21)]	100	≥ 90	≥ 70	
COC(=O)C(CCCC(F)(F)F)S(=O)(=O)CCC(F)(F)F (stereo not drawn) [(22)]		≥ 90	≥ 70	
COC(=O)C(CCC(F)(F)C(F)(F)F)S(=O)(=O)CCC(F)(F)F (stereo not drawn) [(23)]	100	≥ 90	≥ 70	
COC(=O)C(CCC(F)(F)C(F)(F)F)S(=O)(=O)CCC(F)(F)C(F)(F)F (stereo not drawn) [(24)]		≥ 90		
CC(C)(C)OC(=O)C(CCC(F)(F)C(F)(F)F)S(=O)(=O)CCC(F)(F)F (stereo not drawn) [(25)]		≥ 90	≥ 70	
COC(=O)C(C)(CCC(F)(F)C(F)(F)F)S(=O)(=O)CCC(F)(F)F (stereo not drawn) [(26)]	100	≥ 90	≥ 70	
CCCC(CCC(F)(F)C(F)(F)F)(C(=O)OC)S(=O)(=O)CCC(F)(F)F (stereo not drawn) [(28)]			≥ 70	
COC(=O)C(F)(CCC(F)(F)C(F)(F)F)S(=O)(=O)CCC(F)(F)F (stereo not drawn) [(29)]	100	≥ 90	≥ 70	

Structure (SMILES)	pest or weed control at 500 ppm (Blattella germanica; [1]) [%]	pest or weed control at 3.5 ppm (Culex pipiens pallens; [2]) [%]	pest or weed control at 500 ppm (Musca domestica; [3]) [%]	also measured
COC(=O)C(C)(CCC(F)(F)C(F)(F)F)S(=O)(=O)CCC(F)(F)C(F)(F)F (stereo not drawn) [(30)]	100	≥ 90	≥ 70	
NC(=O)C(CCC(F)(F)C(F)(F)F)S(=O)(=O)CCC(F)(F)F (stereo not drawn) [(31)]	100	≥ 90	≥ 70	
CNC(=O)C(CCC(F)(F)C(F)(F)F)S(=O)(=O)CCC(F)(F)F (stereo not drawn) [(32)]	100	≥ 90	≥ 70	
CN(C)C(=O)C(CCC(F)(F)C(F)(F)F)S(=O)(=O)CCC(F)(F)F (stereo not drawn) [(33)]	100	≥ 90	≥ 70	
CC(CCC(F)(F)C(F)(F)F)(C(N)=O)S(=O)(=O)CCC(F)(F)F (stereo not drawn) [(34)]	100	≥ 90	≥ 70	
CNC(=O)C(C)(CCC(F)(F)C(F)(F)F)S(=O)(=O)CCC(F)(F)F (stereo not drawn) [(35)]	100	≥ 90	≥ 70	
CN(C)C(=O)C(C)(CCC(F)(F)C(F)(F)F)S(=O)(=O)CCC(F)(F)F (stereo not drawn) [(36)]	100	≥ 90	≥ 70	
CCNC(=O)C(C)(CCC(F)(F)C(F)(F)F)S(=O)(=O)CCC(F)(F)F (stereo not drawn) [(37)]	100	≥ 90	≥ 70	
CCC(CCC(F)(F)C(F)(F)F)(C(N)=O)S(=O)(=O)CCC(F)(F)F (stereo not drawn) [(38)]	100	≥ 90	≥ 70	
N#CC(CCCC(F)(F)F)S(=O)(=O)CCC(F)(F)F (stereo not drawn) [(39)]	100	≥ 90	≥ 70	
CCCNC(=O)C(C)(CCC(F)(F)C(F)(F)F)S(=O)(=O)CCC(F)(F)F (stereo not drawn) [(40)]	100	≥ 90	≥ 70	
COC(=O)C(CCC(F)(F)C(F)(F)F)S(=O)(=O)CCC(F)(F)C(F)(F)C(F)(F)F (stereo not drawn) [(42)]				pest or weed control at 3.5 ppm (Culex pipiens pallens): ≥ 90%
COC(=O)C(C)(CCC(F)(F)C(F)(F)F)S(=O)(=O)CCC(F)(F)C(F)(F)C(F)(F)F (stereo not drawn) [(43)]				pest or weed control at 500 ppm (Musca domestica; 24 h): ≥ 70%
COC(=O)C(C)(CCCC(F)(F)F)S(=O)(=O)CCC(F)(F)F (stereo not drawn) [(44)]	100		≥ 70	
N#CC(CCC(F)(F)C(F)(F)F)SCCC(F)(F)F (stereo not drawn) [(47)]				rate of dead pests (Blattella germanica; [1]): 100%
COC(=O)C(CCC(F)(F)C(F)(F)C(F)(F)F)S(=O)(=O)CCC(F)(F)C(F)(F)F (stereo not drawn) [(51)]				pest or weed control at 3.5 ppm (Culex pipiens pallens): ≥ 90%
NC(=O)C(CCC(F)(F)C(F)(F)C(F)(F)F)S(=O)(=O)CCC(F)(F)C(F)(F)F (stereo not drawn) [(55)]				pest or weed control at 500 ppm (Blattella germanica): 100%; pest or weed control at 500 ppm (Musca domestica; 24 h): ≥ 70%
NC(=O)C(F)(CCC(F)(F)C(F)(F)F)S(=O)(=O)CCC(F)(F)F (stereo not drawn) [(64)]	100		≥ 70	
COC(=O)C(F)(CCC(F)(F)C(F)(F)F)S(=O)(=O)CCC(F)(F)C(F)(F)C(F)(F)F (stereo not drawn) [(66)]				pest or weed control at 500 ppm (Musca domestica; 24 h): ≥ 70%
COC(=O)C(CCC(F)(F)F)S(=O)(=O)CCC(F)(F)F (stereo not drawn) [(76)]		≥ 90		
COC(=O)C(CCCC(F)(F)F)S(=O)(=O)CCC(F)(F)F (stereo not drawn) [(78)]	100			
COC(=O)C(CCC(F)(F)C(F)(F)C(F)(F)F)S(=O)(=O)CCC(F)(F)F (stereo not drawn) [(82)]				pest or weed control at 3.5 ppm (Culex pipiens pallens): ≥ 90%; pest or weed control at 500 ppm (Musca domestica; 24 h): ≥ 70%
COC(=O)C(Cl)(CCC(F)(F)C(F)(F)C(F)(F)F)S(=O)(=O)CCC(F)(F)F (stereo not drawn) [(83)]				pest or weed control at 3.5 ppm (Culex pipiens pallens): ≥ 90%
COC(=O)C(CCC(F)(F)F)S(=O)(=O)CCC(F)(F)C(F)(F)F (stereo not drawn) [(92)]		≥ 90		
COC(=O)C(CCC(F)(F)C(F)(F)C(F)(F)F)S(=O)(=O)CCC(F)(F)C(F)(F)F (stereo not drawn) [(95)]				pest or weed control at 500 ppm (Musca domestica; 24 h): ≥ 70%
COC(=O)C(Cl)(CCCCC(F)(F)F)S(=O)(=O)CCC(F)(F)F (stereo not drawn) [(99)]			≥ 70	
COC(=O)C(CCCC(F)(F)C(F)(F)F)S(=O)(=O)CCC(F)(F)F (stereo not drawn) [(101)]	100		≥ 70	
